From patent US11332463B2, “Spiropiperidine allosteric modulators of nicotinic acetylcholine receptors” (Merck Sharp & Dohme Corp., priority 2018, dated 2022)
pEC50: −log10 of the molar value. Where two headings read alike, the source gives them in different places.

Molecular target: T1, human α7 nicotinic acetylcholine receptor (HEK cell line stably expressing human RIC-3 and human α7) (Homo sapiens, UniProt P36544)
T1 construct: host or cells: HEK cell line (PrecisION hnAChR α7/RIC-3)
Assay: Automated patch-clamp electrophysiology functional assay (Assay A), IonFlux HT, whole-cell population patch
Format: cell-based
Experimental: The α7 nAChR positive allosteric modulator (PAM) activity of the present compounds may be tested using assays known in the art. […] The assay was performed using the IonFlux HT in a whole-cell, population patch configuration. See Golden et al. Assay Drug Dev. Technol. […] The compounds were assessed for their ability to modulate the function of the human 7 nAChR stably expressed in a HEK cell line both in the presence, and in the absence of the natural 7 agonist acetylcholine. By performing a series of such measurements at different concentrations, the effective concentration of the 7 nAChR PAMs (EC50) was determined. See Spencer et al. Assay Drug Dev. Technol.
Direct activation of α7 (agonism), and potentiation of acetylcholine-evoked 7 currents was determined as follows:
Automated patch-clamp electrophysiology was performed using the IonFlux HT (Fluxion Biosciences Inc., San Francisco, Calif.) in the whole-cell, population patch configuration. Test compounds were assessed for their ability to modulate the function of the α7 nicotinic acetylcholine receptor both in the presence, and in the absence of the natural α7 agonist acetylcholine. […] Immediately prior to assay, cells were detached by first aspirating growth media, rinsing with Dulbecco's phosphate buffered saline, and then adding 10 mL of Accutase (Innovative Cell Technologies, San Diego, Calif.) to the flask and then incubating at 37° C. for 5 minutes. Detached cells were then recovered by the addition of 40 mL of CHO-serum-free media supplemented with 25 mM HEPES, and rocked gently in a 50 mL conical tube for 20 minutes prior to patch-clamp assay. After recovery, cells were pelleted by centrifugation at 1,000 RPM for 1 minute in a compact bench top centrifuge; recovery media was aspirated and cells were resuspended in external recording solution (150 mM NaCl, 5 mM KCl, 2 mM CaCl2), 1 mM MgCl2, 10 mM HEPES, 12 mM dextrose) to a density of 5.0×10^6 cells/mL. The cell suspension was added to the cell inlet wells on an IonFlux HT population patch plate which had previously been rinsed and primed with deionized H2O. Test compounds were serially diluted in DMSO and then resuspended to the final test concentration in external recording solution, with, or without 40 μM acetylcholine added to the external recording solution; test compounds were then transferred to the IonFlux HT population patch plate. Internal recording solution (110 mM TrisPO4, 28 mM TrisBase, 0.1 mM CaCl2, 2 mM MgCl2, 11 mM EGTA, 4 mM MgATP) was added to the internal recording solution inlet wells on the IonFlux HT patch plate previously loaded with cells and test compounds, and the plate loaded into the IonFlux HT instrument. A protocol was executed on the IonFlux HT to trap the cells, break into the cells, and establish the whole-cell recording configuration; cells were voltage-clamped at a holding potential of −60 mV for the duration of the experiment, all experiments were conducted at room temperature, and the IonFlux HT injection pressure was 8 psi for solution applications. Upon establishing the whole-cell configuration, external recording solution was perfused into the recording chambers for 120 seconds and then 40 μM acetylcholine was applied for 1 second and immediately washed off with external recording solution for 60 seconds. The 40 μM acetylcholine-evoked α7 current served as the current response to which subsequent test compound effects, in the presence, or in the absence of 40 μM acetylcholine would be quantified relative to. Next, test compounds were evaluated at multiple concentrations for their ability to induce, or modulate 7 current responses; three concentrations of test compound were evaluated in ascending dose fashion per recording.

[1] = HEK cells expressing human α7/RIC-3, test compound with or without 40 μM acetylcholine, holding potential −60 mV, room temperature, read-out: α7 nAChR Potency
[2] = automated patch-clamp electrophysiology functional assay (Assay A), read-out: α7 nAChR EC50

T1 sequence (P36544 23-502): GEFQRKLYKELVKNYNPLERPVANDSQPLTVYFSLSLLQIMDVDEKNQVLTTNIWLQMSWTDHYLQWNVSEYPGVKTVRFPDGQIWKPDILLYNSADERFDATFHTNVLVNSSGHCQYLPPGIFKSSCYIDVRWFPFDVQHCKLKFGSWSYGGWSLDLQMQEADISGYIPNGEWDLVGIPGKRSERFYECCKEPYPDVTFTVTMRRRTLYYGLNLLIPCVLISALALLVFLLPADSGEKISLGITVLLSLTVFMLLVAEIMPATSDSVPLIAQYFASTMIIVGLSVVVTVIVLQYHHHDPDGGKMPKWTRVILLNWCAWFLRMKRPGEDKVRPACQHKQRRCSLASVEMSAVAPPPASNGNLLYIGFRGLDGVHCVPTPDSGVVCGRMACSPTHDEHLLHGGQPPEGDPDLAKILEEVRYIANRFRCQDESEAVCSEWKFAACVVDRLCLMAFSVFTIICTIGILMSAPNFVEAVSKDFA

pEC50 [1]	pEC50 [2]	Compound
6.30 to 7.00	6.48	NS(=O)(=O)N1CCC2(C(F)C1)C(c1nc(-c3conc3C3CC3)no1)C2(F)F (single isomer, unassigned) [Example I14]
> 7.00	7.06	Cc1ccc(C)c(-c2nc(C3C(F)(F)C34C3CCC4CN(S(N)(=O)=O)C3)no2)c1 (single isomer, unassigned) [Example K1]
5.30 to 6.30	6.04	Cc1ccc(C)c(-c2noc([C@@H]3C(F)(F)C34CCN(S(C)(=O)=O)CC4)n2)c1 (stereo in doubt) [Example 32, 2-[3-(2,5-Dimethylphenyl)-1,2,4-oxadiazol-5-yl]-1,1-difluoro-6-(methylsulfonyl)-6-azaspiro[2.5]octane]
5.30 to 6.30	6.05	NS(=O)(=O)N1CCC2(CC1)[C@H](c1ccn(-c3ccc(F)cc3C(F)(F)F)n1)C2(F)F (stereo in doubt) [Example 36, 1,1-Difluoro-2-{1-[4-fluoro-2-(trifluoromethyl)phenyl]-1H-pyrazol-3-yl}-6-azaspiro[2.5]octane-6-sulfonamide]
5.30 to 6.30	5.92	NS(=O)(=O)N1CCC2(CC1)[C@H](c1nsc(-c3ccc(F)cc3C(F)(F)F)n1)C2(F)F (stereo in doubt) [Example 37, 1,1-Difluoro-2-{5-[4-fluoro-2-(trifluoromethyl)phenyl]-1,2,4-thiadiazol-3-yl}-6-azaspiro[2.5]octane-6-sulfonamide]
> 7.00	7.01	Cc1ccc(C(F)(F)F)cc1-c1nc([C@@H]2CC23CCN(S(N)(=O)=O)CC3)no1 [Example 1, (1R)-1-{5-[2-Methyl-5-(trifluoromethyl)phenyl]-1,2,4-oxadiazol-3-yl}-6-azaspiro[2.5]octane-6-sulfonamide]
> 7.00	7.09	Cc1ccc(C)c(-c2nc([C@@H]3CC34CCN(S(N)(=O)=O)CC4)no2)c1 [Example 2, (1R)-1-[5-(2,5-Dimethylphenyl)-1,2,4-oxadiazol-3-yl]-6-azaspiro[2.5]octane-6-sulfonamide]
5.30 to 6.30	5.89	NS(=O)(=O)N1CCC2(CC2c2nc(-c3cccc(OCC(F)(F)F)c3)no2)C(F)(F)C1 (stereo not drawn) [Example 3, 4,4-Difluoro-1-{3-[3-(2,2,2-trifluoroethoxy)phenyl]-1,2,4-oxadiazol-5-yl}-6-azaspiro[2.5]octane-6-sulfonamide]
6.30 to 7.00	6.46	NS(=O)(=O)N1CCC2(CC2c2nc(-c3cccc(OC(F)F)c3)no2)C(F)C1 (stereo not drawn) [Example 4, 1-{3-[3-(Difluoromethoxy)phenyl]-1,2,4-oxadiazol-5-yl}-4-fluoro-6-azaspiro[2.5]octane-6-sulfonamide]
5.30 to 6.30	5.92	NS(=O)(=O)N1CCC2(CC1)C[C@H]2c1nc(-c2ccc(F)cc2C(F)(F)F)no1 [Example 5, (1R)-1-{3-[4-Fluoro-2-(trifluoromethyl)phenyl]-1,2,4-oxadiazol-5-yl}-6-azaspiro[2.5]octane-6-sulfonamide]
6.30 to 7.00	6.55	CC1CN(S(N)(=O)=O)CCC12CC2c1nc(-c2ccc(F)cc2C(F)(F)F)no1 (stereo not drawn) [Example 6, 1-{3-[4-Fluoro-2-(trifluoromethyl)phenyl]-1,2,4-oxadiazol-5-yl}-4-methyl-6-azaspiro[2.5]octane-6-sulfonamide]
5.30 to 6.30	5.96	NS(=O)(=O)N1CCC2(CC1)C[C@H]2c1csc(-c2cccc(OC(F)(F)F)c2)n1 [Example 7, (1R)-1-{2-[3-(Trifluoromethoxy)phenyl]-1,3-thiazol-4-yl}-6-azaspiro[2.5]octane-6-sulfonamide]
6.30 to 7.00	6.64	Cc1cnn(CC(F)(F)F)c1-c1nc([C@@H]2CC23CCN(S(N)(=O)=O)CC3)no1 [Example 8, (1R)-1-{5-[4-Methyl-1-(2,2,2-trifluoroethyl)-1H-pyrazol-5-yl]-1,2,4-oxadiazol-3-yl}-6-azaspiro[2.5]octane-6-sulfonamide]
> 7.00	7.12	Cc1cnn(C)c1-c1nc([C@@H]2C(F)(F)C23CCN(S(N)(=O)=O)CC3)no1 [Example 9, (2R)-2-[5-(1,4-Dimethyl-1H-pyrazol-5-yl)-1,2,4-oxadiazol-3-yl]-1,1-difluoro-6-azaspiro[2.5]octane-6-sulfonamide]
6.30 to 7.00	6.66	NS(=O)(=O)N1CCC2(CC1)[C@H](c1noc(-c3ccnc(OC(F)F)c3)n1)C2(F)F [Example 10, (2R)-2-{5-[2-(Difluoromethoxy)pyridin-4-yl]-1,2,4-oxadiazol-3-yl}-1,1-difluoro-6-azaspiro[2.5]octane-6-sulfonamide]
> 7.00	7.24	NS(=O)(=O)N1CCC2(CC1)[C@H](c1nc(-c3conc3C3CC3)no1)C2(F)F [Example 11, (2R)-2-[3-(3-Cyclopropylisoxazol-4-yl)-1,2,4-oxadiazol-5-yl]-1,1-difluoro-6-azaspiro[2.5]octane-6-sulfonamide]
6.30 to 7.00	6.66	NS(=O)(=O)N1CCC2(CC1)[C@H](c1nc(-c3ccnn3CC(F)(F)F)no1)C2(F)F [Example 12, (2R)-1,1-Difluoro-2-{3-[1-(2,2,2-trifluoroethyl)-1H-pyrazol-5-yl]-1,2,4-oxadiazol-5-yl}-6-azaspiro[2.5]octane-6-sulfonamide]
> 7.00	7.14	Cc1cnc(OC(F)F)cc1-c1nc([C@@H]2C(F)(F)C23CCN(S(N)(=O)=O)CC3)no1 [Example 13, (2R)-2-{5-[2-(Difluoromethoxy)-5-methylpyridin-4-yl]-1,2,4-oxadiazol-3-yl}-1,1-difluoro-6-azaspiro[2.5]octane-6-sulfonamide]
> 7.00	7.31	Cn1ncc(C(F)(F)F)c1-c1nc([C@@H]2C(F)(F)C23CCN(S(N)(=O)=O)CC3)no1 [Example 14, (2R)-1,1-Difluoro-2-{5-[1-methyl-4-(trifluoromethyl)-1H-pyrazol-5-yl]-1,2,4-oxadiazol-3-yl}-6-azaspiro[2.5]octane-6-sulfonamide]
6.30 to 7.00	6.48	NS(=O)(=O)N1CCC2(CC1)C[C@H]2c1cnn(-c2cccc(OC(F)(F)F)c2)c1 [Example 15, (1R)-1-{1-[3-(Trifluoromethoxy)phenyl]-1H-pyrazol-4-yl}-6-azaspiro[2.5]octane-6-sulfonamide]
6.30 to 7.00	6.35	NS(=O)(=O)N1CCC2(CC1)[C@H](c1nnc(-c3ccnn3C3CC3)o1)C2(F)F [Example 16, (2R)-2-[5-(1-Cyclopropyl-1H-pyrazol-5-yl)-1,3,4-oxadiazol-2-yl]-1,1-difluoro-6-azaspiro[2.5]octane-6-sulfonamide]
5.30 to 6.30	6.26	NS(=O)(=O)N1CCC2(CC1)[C@H](c1nnc(-c3ccnn3C3CC3)s1)C2(F)F [Example 17, (2S)-2-[5-(1-Cyclopropyl-1H-pyrazol-5-yl)-1,3,4-thiadiazol-2-yl]-1,1-difluoro-6-azaspiro[2.5]octane-6-sulfonamide]
5.30 to 6.30	6.10	NS(=O)(=O)N1CCC2(CC1)[C@H](c1noc(-c3cnn4c3CSCC4)n1)C2(F)F [Example 18, (2R)-2-[5-(6,7-Dihydro-4H-pyrazolo[5,1-c][1,4]thiazin-3-yl)-1,2,4-oxadiazol-3-yl]-1,1-difluoro-6-azaspiro[2.5]octane-6-sulfonamide]
6.30 to 7.00	6.62	Cn1cc(-c2nc([C@@H]3C(F)(F)C34CCN(S(N)(=O)=O)CC4)no2)c(C(F)(F)F)n1 [Example 19, (2R)-1,1-Difluoro-2-{5-[1-methyl-3-(trifluoromethyl)-1H-pyrazol-4-yl]-1,2,4-oxadiazol-3-yl}-6-azaspiro[2.5]octane-6-sulfonamide]
